Active and inactive are the calls of the source. For most assays here, no stated cut-off is given here; in the data, actives have a measured EC50 and inactives only a lower limit.
Tests used:
[1] = target: G2/mitotic-specific cyclin-B1 (Homo sapiens, UniProt P14635); assay: Counterscreen assay for inhibitors of Wee1 degradation: dose response cell-based assay to identify inhibitors of cyclin B degradation. [Related pubchem assays: 1410, 1321 ]; assay type: functional
[2] = target: E3 ubiquitin-protein ligase Mdm2 (Homo sapiens, UniProt Q00987); assay: MDM2-luc reporter signal enhancers, multi-concentration potency testing, MDM2 ubiquitin-protein ligase inhibitor program, whole-cell format, luminescence detection, 384-well microplate (AID 1394); assay type: functional;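 further: MDM2 E3 inhibitors raise luminescence so EC50 is for signal enhancement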
Wee1-like protein kinase = Wee1-like protein kinase (Homo sapiens, UniProt P30291); assay: Dose Response Cell-based Assay for Inhibitors of Wee1 Degradation. [Related pubchem assays: 1410, 1321 ]; assay type: functional
BJ [3] = assay: cells; assay type: functional, cell-based; conditions: Homo sapiens
[4] = Trypanosoma cruzi growth suppression in host cells – NIH3T3 host cells, beta-gal luminescence, confirmation (AID 2044); assay type: functional, cell-based;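 further: intracellular parasites grown in NIH/3T3 mouse fibroblasts as host cells; luminescent beta-galactosidase reporter signal from transgenic T. cruzi replicating inside host cells; inhibitors lower the luminescence signal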
[5] = NIH3T3 cell viability loss – ATP luminescence, mouse fibroblasts, counter-screen, dose response (AID 2010); assay type: functional, cell-based;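 further: cells exposed to compound for about 90 hours before reading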
BJ [6] = assay: BJ-TERT-LT-ST fibroblast viability loss – cell-based, RAS-independent, luminescence, dose response (AID 1935); assay type: functional; conditions: Homo sapiens;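 further: BJ fibroblasts immortalized with TERT plus LT and ST oncogenes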
[7] = DRD fibroblast viability loss – cell-based, non-viral oncogenic, luminescence, dose response (AID 1934); assay type: functional; conditions: Homo sapiens
[8] = target: T1, Replicative DNA helicase DnaB (Mycobacterium tuberculosis, UniProt P9WMR3); assay: DnaB intein splicing inhibitors, dose response, biochemical, cell-free fluorescence (AID 449749); assay type: functional
T1 sequence (P9WMR3 whole entry): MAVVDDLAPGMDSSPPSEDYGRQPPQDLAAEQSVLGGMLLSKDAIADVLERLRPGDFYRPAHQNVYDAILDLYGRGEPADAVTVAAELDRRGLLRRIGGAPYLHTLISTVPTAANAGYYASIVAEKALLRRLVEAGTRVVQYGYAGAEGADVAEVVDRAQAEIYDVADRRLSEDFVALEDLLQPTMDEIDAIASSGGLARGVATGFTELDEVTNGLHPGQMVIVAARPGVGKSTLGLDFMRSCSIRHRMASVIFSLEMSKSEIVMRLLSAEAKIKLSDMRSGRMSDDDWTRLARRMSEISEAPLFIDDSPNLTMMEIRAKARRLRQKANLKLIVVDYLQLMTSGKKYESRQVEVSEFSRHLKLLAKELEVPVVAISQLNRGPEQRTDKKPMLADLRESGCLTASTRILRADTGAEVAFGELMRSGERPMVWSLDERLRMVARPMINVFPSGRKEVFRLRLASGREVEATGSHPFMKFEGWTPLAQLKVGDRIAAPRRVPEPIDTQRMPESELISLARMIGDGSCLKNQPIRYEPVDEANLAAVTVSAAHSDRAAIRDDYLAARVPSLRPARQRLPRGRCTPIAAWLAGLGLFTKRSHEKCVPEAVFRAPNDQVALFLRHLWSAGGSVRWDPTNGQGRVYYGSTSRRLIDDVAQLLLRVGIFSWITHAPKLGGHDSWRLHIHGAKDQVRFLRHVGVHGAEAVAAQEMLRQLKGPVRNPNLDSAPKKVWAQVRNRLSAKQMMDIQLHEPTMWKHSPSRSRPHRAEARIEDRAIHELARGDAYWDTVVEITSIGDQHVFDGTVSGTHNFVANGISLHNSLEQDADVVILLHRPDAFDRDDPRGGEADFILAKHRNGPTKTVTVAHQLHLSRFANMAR

Protein RecA = target: T2, Protein RecA (Mycobacterium tuberculosis, UniProt P9WHJ3); assay: Fluorescence Cell-Free Homogeneous Dose Retest to Identify Inhibitors of RecA-Intein Splicing Activity. [Related pubchem assays (depositor defined):AID2097, AID2223, AID489010, AID492950]; assay type: functional
T2 sequence (P9WHJ3 whole entry): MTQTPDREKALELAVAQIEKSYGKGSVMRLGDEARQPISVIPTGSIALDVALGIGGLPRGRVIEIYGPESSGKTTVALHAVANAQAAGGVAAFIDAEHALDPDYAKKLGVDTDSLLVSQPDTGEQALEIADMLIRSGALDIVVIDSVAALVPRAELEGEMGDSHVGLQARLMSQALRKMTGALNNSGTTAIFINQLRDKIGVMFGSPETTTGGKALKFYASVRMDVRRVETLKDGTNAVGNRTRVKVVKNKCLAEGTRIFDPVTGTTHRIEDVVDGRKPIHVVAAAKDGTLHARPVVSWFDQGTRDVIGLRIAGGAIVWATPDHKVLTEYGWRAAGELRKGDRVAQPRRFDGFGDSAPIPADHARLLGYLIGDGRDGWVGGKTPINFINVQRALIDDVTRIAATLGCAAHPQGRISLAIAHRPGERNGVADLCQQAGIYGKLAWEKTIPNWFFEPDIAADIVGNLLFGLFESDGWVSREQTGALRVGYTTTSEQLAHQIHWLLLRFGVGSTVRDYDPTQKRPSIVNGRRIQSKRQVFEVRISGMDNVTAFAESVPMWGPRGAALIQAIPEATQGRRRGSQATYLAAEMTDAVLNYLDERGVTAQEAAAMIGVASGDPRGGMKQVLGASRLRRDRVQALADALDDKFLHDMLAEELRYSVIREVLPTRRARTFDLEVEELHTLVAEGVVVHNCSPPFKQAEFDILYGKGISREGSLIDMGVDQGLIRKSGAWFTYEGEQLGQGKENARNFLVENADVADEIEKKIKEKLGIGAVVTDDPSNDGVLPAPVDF

[9] = NIH-3T3 fibroblast cytotoxicity, dose response, cytotoxicity control, cell-based, fluorescence, Alamar Blue, secondary assay (AID 2327); assay type: functional;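 further: NIH-3T3 mouse fibroblasts cultured with fluconazole at 8 µg/mL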
[10] = luciferase reporter signal suppression in cells – H4 neuroglioma cells, luminescence, dose response (AID 1990); assay type: functional, cell-based
[11] = Luminescence Cell-Based Dose Response HTS to Identify Inhibitors of 5'UTR Stem-Loop Driven Prion Protein mRNA Translation in H4 Neuroglioblastoma Cells. [Related pubchem assays: 1827 (Project Summary), 1813 (Primary HTS)]; assay type: functional
[12] = alpha-synuclein stem-loop luciferase translation blockers – H4 neuroglioma cells, luminescence, confirmation (AID 1988); assay type: functional, cell-based
[13] = fluconazole-exposed Candida albicans growth modulators – fluorescence, retest, confirmation (AID 2467); assay type: functional, cell-based
[14] = Luminescence-based counterscreen assay for KLF5 inhibitors: dose response cell-based high throughput screening assay to identify cytotoxic compounds using the IEC-6 intestinal epithelial cell line. [Related pubchem assays: 1700 (Primary screen.), 1834 (Confirmation screen.), 1858 (Summary AID.), 1905 (Counterscreen.)]; assay type: functional
Nonstructural protein 1 = Nonstructural protein 1 (Influenza A virus, UniProt Q194T2); assay type: functional, Influenza A virus (A/California/07/2009(H1N1))
INS1 = assay: INS-1E survival protection against cytokine death – cell-based, luminescence, retest, dose response (AID 449756); assay type: functional; conditions: Rattus norvegicus;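 further: cell death triggered by IL-1 beta plus TNF-alpha plus IFN-gamma mixture; protective hits raise ATP signal compared with cytokine alone wells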
Caspase-6 = target: T3, Caspase-6 (Homo sapiens, UniProt P55212); assay: inhibition of CASP6 peptide cleavage – biochemical, VEID-R110 fluorescence, cherry-pick, dose response (AID 720632)
T3 sequence (P55212 whole entry): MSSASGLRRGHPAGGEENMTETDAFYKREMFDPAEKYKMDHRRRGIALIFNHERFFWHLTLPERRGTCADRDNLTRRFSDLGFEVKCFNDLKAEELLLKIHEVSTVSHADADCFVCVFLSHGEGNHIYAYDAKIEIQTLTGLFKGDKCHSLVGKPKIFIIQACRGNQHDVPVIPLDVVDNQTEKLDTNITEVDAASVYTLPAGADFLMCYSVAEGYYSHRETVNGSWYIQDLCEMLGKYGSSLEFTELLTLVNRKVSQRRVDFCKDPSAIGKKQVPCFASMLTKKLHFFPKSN

Chain of Wee1-like protein kinase (P30291 whole entry): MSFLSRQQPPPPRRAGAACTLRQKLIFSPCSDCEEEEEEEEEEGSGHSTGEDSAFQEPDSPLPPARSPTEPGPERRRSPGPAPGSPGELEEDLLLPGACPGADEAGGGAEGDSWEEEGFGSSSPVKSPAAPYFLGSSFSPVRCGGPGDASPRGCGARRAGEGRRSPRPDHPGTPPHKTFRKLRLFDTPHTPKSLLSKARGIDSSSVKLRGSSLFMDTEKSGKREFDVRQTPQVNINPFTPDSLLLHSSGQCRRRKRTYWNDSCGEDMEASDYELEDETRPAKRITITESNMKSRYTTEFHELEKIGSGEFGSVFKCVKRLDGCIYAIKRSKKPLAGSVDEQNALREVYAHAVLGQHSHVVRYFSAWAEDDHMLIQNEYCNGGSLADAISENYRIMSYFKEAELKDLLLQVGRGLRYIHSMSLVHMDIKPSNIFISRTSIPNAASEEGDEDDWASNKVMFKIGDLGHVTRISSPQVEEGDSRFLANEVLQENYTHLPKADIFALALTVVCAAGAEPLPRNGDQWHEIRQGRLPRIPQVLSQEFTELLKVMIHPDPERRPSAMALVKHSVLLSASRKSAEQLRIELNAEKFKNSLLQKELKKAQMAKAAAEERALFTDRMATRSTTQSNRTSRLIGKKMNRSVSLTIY
Chain of G2/mitotic-specific cyclin-B1 (P14635 whole entry): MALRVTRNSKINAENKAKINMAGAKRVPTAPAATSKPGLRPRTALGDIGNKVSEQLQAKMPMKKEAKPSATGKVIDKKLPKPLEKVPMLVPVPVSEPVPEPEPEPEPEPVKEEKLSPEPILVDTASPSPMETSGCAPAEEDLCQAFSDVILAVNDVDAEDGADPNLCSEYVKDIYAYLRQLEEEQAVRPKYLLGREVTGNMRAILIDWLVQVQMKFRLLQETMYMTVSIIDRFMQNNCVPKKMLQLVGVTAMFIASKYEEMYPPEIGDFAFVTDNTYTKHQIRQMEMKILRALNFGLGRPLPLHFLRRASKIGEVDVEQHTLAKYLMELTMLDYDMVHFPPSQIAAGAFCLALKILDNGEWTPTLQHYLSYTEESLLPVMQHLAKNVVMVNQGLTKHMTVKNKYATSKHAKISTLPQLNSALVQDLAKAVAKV
Chain of E3 ubiquitin-protein ligase Mdm2 (Q00987 whole entry): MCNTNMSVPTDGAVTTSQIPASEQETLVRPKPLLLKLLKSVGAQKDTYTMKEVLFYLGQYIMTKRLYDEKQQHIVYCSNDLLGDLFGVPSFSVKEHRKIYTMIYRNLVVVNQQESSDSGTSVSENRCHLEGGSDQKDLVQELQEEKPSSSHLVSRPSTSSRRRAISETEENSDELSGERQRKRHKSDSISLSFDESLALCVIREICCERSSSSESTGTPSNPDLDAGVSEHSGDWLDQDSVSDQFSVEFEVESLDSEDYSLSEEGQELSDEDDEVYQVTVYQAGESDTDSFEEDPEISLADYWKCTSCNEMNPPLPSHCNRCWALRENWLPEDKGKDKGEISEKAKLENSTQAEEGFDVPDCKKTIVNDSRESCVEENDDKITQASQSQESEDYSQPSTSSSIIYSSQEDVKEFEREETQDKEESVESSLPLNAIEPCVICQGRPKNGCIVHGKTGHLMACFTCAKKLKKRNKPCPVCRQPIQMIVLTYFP
Chain of Nonstructural protein 1 (Q194T2 whole entry): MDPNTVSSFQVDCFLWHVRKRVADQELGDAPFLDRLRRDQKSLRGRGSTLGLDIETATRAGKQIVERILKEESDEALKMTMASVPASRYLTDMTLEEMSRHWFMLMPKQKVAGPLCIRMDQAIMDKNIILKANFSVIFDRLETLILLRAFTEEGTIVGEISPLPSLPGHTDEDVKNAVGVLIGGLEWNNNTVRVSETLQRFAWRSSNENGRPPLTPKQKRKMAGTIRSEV

| Structure (SMILES) | EC50 [1] | EC50 [2] | EC50 (Wee1-like protein kinase) | EC50 (BJ [3]) | EC50 [4] | EC50 [5] | EC50 (BJ [6]) | EC50 [7] | AC50 [8] | EC50 (Protein RecA) | EC50 [9] | EC50 [10] | EC50 [11] | EC50 [12] | EC50 [13] | IC50 [14] | IC50 (Nonstructural protein 1) | AC50 (INS1) | AC50 (Caspase-6) |
| --- | --- | --- | --- | --- | --- | --- | --- | --- | --- | --- | --- | --- | --- | --- | --- | --- | --- | --- | --- |
| CCOC(=O)C1=C(c2ccccc2)O/C(=C(/C#N)C(F)(F)F)S1 | > 1.84 µM (active) | 0.84 µM (active) | > 1.84 µM (active) | 4.58 µM (inconclusive) | 2.37 µM (active) | 4.88 µM (active) | 5.47 µM (inconclusive) | 6.24 µM (inconclusive) | > 380 µM (inactive) | 0.723 µM (active) |  |  |  |  |  |  |  |  |  |
| NS(=O)(=O)c1ccc(N=Nc2ccc(O)c3ncccc23)cc1 |  |  |  |  | 4.07 µM (active) | 10.4 µM (active) |  |  |  |  | 32.2 µM (active) | 9.04 µM (active) | 8.29 µM (active) | 5.67 µM (active) | 1.95 µM (active) | 10.7 µM (not active) | 7.62 µM (active) | 3.45 µM (active) | 1.58 µM (active) |

— ChEMBL document CHEMBL1201862, “PubChem BioAssay data set” (2004)
